Broadly, the IC50 is the concentration needed to halve the response being measured.

Data on eight compounds can be found in US20050107353A1, “Methods of treating lower urinary tract disorders using losigamone” (Dynogen Pharmaceuticals, Inc., priority 2003, published 2005).

The structures appear in SMILES notation. “Also recorded” adds a separate entry of the source. Where a name gives a salt, the structure may show the parent alone.

Experiment [1] deals with acetic acid-induced reduction of bladder capacity. As to the kind of experiment: Dilute acetic acid model: bladder capacity by filling cystometry during continuous intravesical acetic acid irritation. It counts as in vivo, rat. The conditions noted are these: for post-test: reversal of bladder capacity reduction: rats; for effect on bladder capacity (reversal of acetic acid-induced reduction): increasing doses, rats during continuous irritation. The text has this:
The objective of the current study was to determine the effect of TTX-R sodium channel modulators or use dependent sodium channel modulators on the ability to reverse the reduction in bladder capacity seen following continuous infusion of dilute acetic acid, a commonly used model of lower urinary tract disorders including overactive bladder.
Animal Preparation: Female rats (250-275 g BW) were anesthetized with urethane (1.2 g/kg) and a saline-filled catheter (PE-50) was inserted into either the jugular vein for intravenous (i.v.; saline vehicle) or the proximal duodenum for intraduodenal (i.d.; distilled water or 10% Tween 80 in saline as vehicle) drug administration. Via a midline lower abdominal incision, a flared-tipped PE 50 catheter was inserted into the bladder dome for bladder filling and pressure recording and secured by ligation. The abdominal cavity was moistened with saline and closed by covering with a thin plastic sheet in order to maintain access to the bladder for emptying purposes. Fine silver or stainless steel wire electrodes were inserted into the external urethral sphincter (EUS) percutaneously for electromyography (EMG).
Experimental Design: Saline was continuously infused at a rate of 0.055 ml/min via the bladder filling catheter for ≧60 minutes to obtain a baseline of lower urinary tract activity (continuous cystometry; CMG). Following the control period, a 0.25% acetic acid solution in saline was infused into the bladder at the same flow rate to induce bladder irritation. Following 30 minutes of AA infusion, 3 vehicle injections were made at 20 minute intervals to determine vehicle effects, if any. Subsequently, increasing doses (2-5) of Na^+ channel blocking compound were administered intravenously or intraduodenaly at half-log order increments at 30 or 60 minute intervals in order to construct a cumulative dose-response relationship. At the end of the control saline cystometry period, the third vehicle, and 20-50 minutes following each subsequent treatment, the infusion pump was stopped, the bladder was emptied by fluid withdrawal via the infusion catheter and a single filling cystometrogram was performed at the same flow rate in order to determine changes in bladder capacity caused by the irritation protocol and subsequent intravenous or intraduodenal drug administration.
Data were analyzed by non-parametric ANOVA for repeated measures (Friedman Test) with Dunn's Multiple Comparison test. All comparisons were made from the last vehicle measurement (AA/Veh 3) or the lowest dose of drug. P<0.050 was considered significant.

Experiment [2] addresses T1, TTX-R sodium currents in bladder afferent neurons (Rattus norvegicus, UniProt Q62968).
T1 construct: Whole cell patch-clamp recordings were obtained from dye-labeled DRG neurons; endogenous in cells; host or cells: primary dissociated L6/S1 dorsal root ganglion neurons of Sprague-Dawley rats, dye-labelled bladder afferents
The experiment can be described thus: Bladder sensory neuron sodium channel current model: whole cell patch-clamp of TTX-R sodium currents. The settings on record: for effect on inward TTX-R sodium current: 100 μM bath application, labeled bladder afferent neuron; for concentration-response effect on TTX-R sodium current amplitude: bath application, cumulative concentrations, bladder afferent neurons. It counts as cell-based. The procedure: Labeling of bladder afferent neurons: Adult female Sprague-Dawley rats (150-300 g) were deeply anesthetized with pentobarbital anesthesia and placed on isoflurane maintenance anesthesia. A ventral midline incision was made through the abdominal skin and musculature, exposing the urinary bladder. Five injections of the fluorescent dye Di-I (5 μl each of 25 mg/ml Di-I in DMSO) or Fast Blue (4% w/v) were made into the bladder smooth muscle wall to label primary afferent fibers innervating the bladder. The area was rinsed with sterile saline to eliminate nonspecific spread of dye, and the incision was closed. Rats recovered for 5-12 days to allow for transport of fluorescent dye from distal terminals to the cell somata of dorsal root ganglion (DRG) neurons. Labeled neurons were identified in vitro using fluorescence optics.
Neuronal cultures: Di-I injected rats were euthanized with pentobarbital anesthesia. Lumbar (L6) and sacral (S1) DRG were dissected from the vertebral column and placed in Dulbecco's modified Eagles medium (DMEM) containing 0.3% collagenase B for 60 min at 37° C. The cell solution was exchanged for a 0.25% trypsin in calcium/magnesium-free Dulbecco's phosphate-buffered saline solution, and further digested for 30 min at 37° C. Following a wash in fresh DMEM, ganglia were dissociated by a series of triturations using fire-polished Pasteur pipettes. DRG cells were plated on polylysine-treated glass coverslips. Cells were plated at a density of 0.5 DRG per coverslip in 1 ml DMEM supplemented with 10% FBS, NGF, and 100 U/ml penicillin/streptomycin. All experimental procedures involving rats were conducted under a protocol approved by an Institutional Animal Care and Use Committee. Small variations in the concentrations of reagents, incubation times, etc. may occur and are expected to give similar results.
In most experiments, neurons were incubated in culture medium containing the FITC-labeled lectin BSI-B4 (IB4, […]) at 37° C. for 5 min before recording. The coverslip was washed with extracellular recording solution for 1 min before being placed in a recording chamber mounted on the stage of an inverted microscope equipped with fluorescence optics.
Electrophysiology: Electrophysiologic evaluation of neurons occurred within 4-48 h of plating. Whole cell patch-clamp recordings were obtained from dye-labeled DRG neurons. Recordings were obtained in an extracellular recording solution (pH 7.4, 295-320 mosM) consisting of (in mM) 140 NaCl, 3 KCl, 1 CaCl2, 1 MgCl2, 0.1 CdCl2, 10 HEPES, and 10 glucose. Patch-clamp electrodes were pulled from borosilicate glass and fire polished to 2-6 MOhm tip resistance. The internal pipette recording solution (pH 7.3, 290-300 mosM) consisted of (in mM) 140 CsCl, 10 NaCl, 1 EGTA, and 10 HEPES. Tetrodotoxin (TTX, 0.3 uM) was included in the extracellular solution to block TTX-sensitive sodium currents. Variations in the concentrations and types of reagents used for solutions may occur and are expected to give similar results.
Sodium currents were recorded from DRG neurons using standard electrophysiologic protocols. Neurons were typically voltage-clamped at −50 mV. Currents were recorded using a patch-clamp amplifier and digitized at 3-10 kHz for acquisition. Neuronal input resistance and membrane capacitance were determined from the amplitude and kinetics of the current response to a voltage pulse from a holding potential of −50 mV. Series resistance was compensated 75-95% for all recordings. Leak currents were cancelled online using a standard P/4 protocol. Depolarizing steps from −90, −70, or −50 mV to 0 mV were delivered every 5 or 30 sec during drug application to determine the effects of drugs on sodium currents. For all cell types, baseline responses were recorded for a minimum of 10 min to ensure that the kinetics of the response was stable. A wash out or recovery period usually followed the drug application period. […]
A general note: Patch clamp records ionic current or voltage across a cell membrane.

T1 sequence (Q62968 whole entry): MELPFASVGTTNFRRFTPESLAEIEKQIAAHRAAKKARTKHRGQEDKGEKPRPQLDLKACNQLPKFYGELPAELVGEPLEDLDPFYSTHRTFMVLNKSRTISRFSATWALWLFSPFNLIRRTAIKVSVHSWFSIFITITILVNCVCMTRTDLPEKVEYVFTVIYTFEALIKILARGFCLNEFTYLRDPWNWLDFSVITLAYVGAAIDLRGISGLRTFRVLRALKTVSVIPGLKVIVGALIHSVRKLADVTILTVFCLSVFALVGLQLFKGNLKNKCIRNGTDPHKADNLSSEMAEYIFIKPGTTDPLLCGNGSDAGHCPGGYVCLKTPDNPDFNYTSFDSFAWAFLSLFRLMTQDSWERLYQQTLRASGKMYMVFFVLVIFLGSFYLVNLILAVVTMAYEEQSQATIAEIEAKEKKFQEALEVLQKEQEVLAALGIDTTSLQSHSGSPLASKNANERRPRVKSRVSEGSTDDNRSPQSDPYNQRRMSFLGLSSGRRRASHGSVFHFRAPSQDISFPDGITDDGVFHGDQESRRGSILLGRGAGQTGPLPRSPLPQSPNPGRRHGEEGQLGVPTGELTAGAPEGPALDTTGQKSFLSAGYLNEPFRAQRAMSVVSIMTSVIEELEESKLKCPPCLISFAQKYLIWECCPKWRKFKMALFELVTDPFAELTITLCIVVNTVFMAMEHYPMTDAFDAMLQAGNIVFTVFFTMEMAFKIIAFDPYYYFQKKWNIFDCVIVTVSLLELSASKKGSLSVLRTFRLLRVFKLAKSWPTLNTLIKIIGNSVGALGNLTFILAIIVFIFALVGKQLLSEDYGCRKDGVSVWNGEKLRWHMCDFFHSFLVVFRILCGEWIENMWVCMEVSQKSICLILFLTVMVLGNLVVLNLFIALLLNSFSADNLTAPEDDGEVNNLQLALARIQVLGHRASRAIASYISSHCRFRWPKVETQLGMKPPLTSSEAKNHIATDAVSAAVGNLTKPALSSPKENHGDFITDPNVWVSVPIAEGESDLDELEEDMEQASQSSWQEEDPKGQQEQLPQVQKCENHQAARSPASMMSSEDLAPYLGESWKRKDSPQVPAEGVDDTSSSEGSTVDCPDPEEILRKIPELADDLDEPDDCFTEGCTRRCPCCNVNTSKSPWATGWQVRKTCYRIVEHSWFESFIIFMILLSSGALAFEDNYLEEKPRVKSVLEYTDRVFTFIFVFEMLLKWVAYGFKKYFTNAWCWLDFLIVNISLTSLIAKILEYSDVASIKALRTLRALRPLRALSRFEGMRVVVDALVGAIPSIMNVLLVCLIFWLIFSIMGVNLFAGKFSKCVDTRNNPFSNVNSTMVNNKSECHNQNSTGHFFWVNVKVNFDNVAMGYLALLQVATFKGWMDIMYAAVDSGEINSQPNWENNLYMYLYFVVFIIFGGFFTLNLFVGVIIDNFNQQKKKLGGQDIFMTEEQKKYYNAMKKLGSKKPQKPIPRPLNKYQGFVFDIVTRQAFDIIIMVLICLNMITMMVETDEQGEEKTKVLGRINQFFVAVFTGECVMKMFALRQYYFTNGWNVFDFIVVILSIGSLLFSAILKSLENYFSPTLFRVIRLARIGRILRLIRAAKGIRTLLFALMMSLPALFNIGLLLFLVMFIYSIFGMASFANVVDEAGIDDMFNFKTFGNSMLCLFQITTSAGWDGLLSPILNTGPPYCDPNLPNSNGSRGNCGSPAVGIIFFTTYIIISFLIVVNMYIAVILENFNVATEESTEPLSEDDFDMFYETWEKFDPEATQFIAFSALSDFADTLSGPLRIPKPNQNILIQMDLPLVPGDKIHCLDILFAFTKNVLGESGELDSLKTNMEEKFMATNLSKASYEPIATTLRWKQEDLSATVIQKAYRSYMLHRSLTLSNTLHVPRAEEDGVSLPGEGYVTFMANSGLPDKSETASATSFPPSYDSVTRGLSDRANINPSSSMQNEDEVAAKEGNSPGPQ

As for `Cc1cccc(C)c1OCC(C)N` (centres unmarked) [Mexiletine, 1-(2,6-Dimethylphenoxy)-2-propanamine hydrochloride], in experiment [1] (30 mg/kg dose, intraduodenal), the “post-test: reversal of bladder capacity reduction” value is on record as “statistically significant reversal of bladder capacity reduction”. Moreover, the “effect on bladder capacity (reversal of acetic acid-induced reduction)” value in experiment [1] (intraduodenal, hydrochloride) was “capable of partially reversing the reduction in bladder capacity caused by acetic acid in a dose-dependent fashion; also recorded: dose-dependent and statistically significant reversal”; in experiment [1] (intraduodenal, listed as mexilitine, hydrochloride) it was “dose-dependent, statistically significant increases in bladder capacity”.
Turning to `C[C@H](NCc1ccc(OCc2ccccc2F)cc1)C(N)=O` [Ralfinamide, (+)-2(S)-[4-(2-Fluorobenzyloxy)benzylamino]propionamide], the “post-test: reversal of bladder capacity reduction” value in experiment [1] (30 mg/kg dose, intraduodenal) is “statistically significant reversal of bladder capacity reduction”. Further, the “effect on bladder capacity (reversal of acetic acid-induced reduction)” value was “capable of partially reversing the reduction in bladder capacity caused by acetic acid in a dose-dependent fashion; also recorded: dose-dependent and statistically significant reversal” in experiment [1] (intraduodenal); “dose-dependent, statistically significant increases in bladder capacity” in experiment [1] (intraduodenal, listed as ralfinamide). In addition, the “effect on inward TTX-R sodium current” value in experiment [2] is “blocked the current”. Besides, in experiment [2] (100 μM, three neurons, holding potential −50 mV, pulse to 0 mV), the “peak TTX-R sodium current” value is recorded as 36±6 % of control.
`Nc1c(Br)cc(Br)cc1CNC1CCC(O)CC1` (centres unmarked) [Ambroxol]: in experiment [1] (300 mg/kg dose, intraduodenal), the “post-test: reversal of bladder capacity reduction” value is “statistically significant reversal of bladder capacity reduction”. Besides, the “effect on bladder capacity (reversal of acetic acid-induced reduction)” value in experiment [1] (intraduodenal) is “capable of partially reversing the reduction in bladder capacity caused by acetic acid in a dose-dependent fashion; also recorded: dose-dependent and statistically significant reversal”; in experiment [1] (intraduodenal, listed as ambroxol), “dose-dependent, statistically significant increases in bladder capacity”. In experiment [2], the “concentration-response effect on TTX-R sodium current amplitude” value is on record as “concentration-dependent reversible block; also recorded: reversible, concentration-dependent reduction in current amplitude”. Further, the IC50 in experiment [2] (three bladder afferent neurons, 2-3 minute application, TTX 300 nM present, read-out: estimated IC50 for block of TTX-R sodium currents) was approximately 15 µM.
As to `Cc1ccc(C(=O)C(C)CN2CCCCC2)cc1` (centres unmarked) [Tolperisone], the “effect on bladder capacity (reversal of acetic acid-induced reduction)” value is “Neither Vinpocetine (FIG. 9) nor intravenous Tolperisone (FIG. 10) demonstrated statistically significant effects on bladder capacity; also recorded: not capable of significantly reversing the reduction in bladder capacity caused by acetic acid” in experiment [1] (intravenous) and “neither intraduodenal vinpocetine (n=6; 3-100 mg/kg) nor intravenous tolperisone (n=4; 3-10 mg/kg) demonstrated statistically significant effects on bladder capacity” in experiment [1] (intravenous, listed as tolperisone).
On to `CCOC(=O)C1=C[C@]2(CC)CCCN3CCc4c(n1c1ccccc41)[C@@H]32` [Vinpocetine], for which the “effect on bladder capacity (reversal of acetic acid-induced reduction)” value is on record as “not capable of significantly reversing the reduction in bladder capacity caused by acetic acid; also recorded: Neither Vinpocetine (FIG. 9) nor intravenous Tolperisone (FIG. 10) demonstrated statistically significant effects on bladder capacity” in experiment [1] (intraduodenal) and “neither intraduodenal vinpocetine (n=6; 3-100 mg/kg) nor intravenous tolperisone (n=4; 3-10 mg/kg) demonstrated statistically significant effects on bladder capacity” in experiment [1] (intraduodenal, listed as vinpocetine).
With `COC1=CC(=O)O[C@@H]1[C@@H](O)c1ccccc1Cl` (relative stereo) [Losigamone, (5R*)-5-[(alphaS*)-o-Chloro-alpha-hydroxybenzyl]-4-methoxy-2(5H)-furanone], the “post-test: reversal of bladder capacity reduction” value in experiment [1] (300 mg/kg dose, intraduodenal) was “statistically significant reversal of bladder capacity reduction”. Moreover, the “effect on bladder capacity (reversal of acetic acid-induced reduction)” value was “capable of partially reversing the reduction in bladder capacity caused by acetic acid in a dose-dependent fashion; also recorded: dose-dependent and statistically significant reversal” in experiment [1] (intraduodenal); “dose-dependent, statistically significant increases in bladder capacity” in experiment [1] (intraduodenal, listed as losigamone).
`CN1CCN(c2ncc(-c3cc(Cl)cc(Cl)c3Cl)c(N)n2)CC1` [Sipatrigine, 4-Amino-2-(4-methylpiperazin-1-yl)-5-(2,3,5-trichlorophenyl)pyrimidine]: the “post-test: reversal of bladder capacity reduction” value in experiment [1] (30 mg/kg dose, intraduodenal) is listed as “statistically significant reversal of bladder capacity reduction”; in experiment [1] (100 mg/kg dose, intraduodenal), “statistically significant reversal of bladder capacity reduction”. Moreover, the “effect on bladder capacity (reversal of acetic acid-induced reduction)” value in experiment [1] (intraduodenal) is “capable of partially reversing the reduction in bladder capacity caused by acetic acid in a dose-dependent fashion; also recorded: dose-dependent and statistically significant reversal”; in experiment [1] (intraduodenal, listed as sipatrigine) it was “dose-dependent, statistically significant increases in bladder capacity”. In addition, the “effect on inward TTX-R sodium current” value in experiment [2] is reported as “blocked the current”. In experiment [2], the “concentration-response effect on TTX-R sodium current amplitude” value is “concentration-dependent reduction in current amplitude”.
For `NC(=O)N1c2ccccc2C=Cc2ccccc21` [Carbamazepine], the “post-test: reversal of bladder capacity reduction” value in experiment [1] (100 mg/kg dose, intraduodenal) is “statistically significant reversal of bladder capacity reduction”. Besides, the “effect on bladder capacity (reversal of acetic acid-induced reduction)” value in experiment [1] (intraduodenal) was “capable of partially reversing the reduction in bladder capacity caused by acetic acid in a dose-dependent fashion; also recorded: dose-dependent and statistically significant reversal”; in experiment [1] (intraduodenal, listed as carbamazepine) it was “dose-dependent, statistically significant increases in bladder capacity”.
